The text below walks through data of US20250019387A1 (Frontier Medicines Corporation, priority 0001, published 2025).

What is called IC50 is the concentration needed to halve the response being measured.

The target of the test is KRAS G12C and cRAF (Ras-binding domain) interaction (Homo sapiens (Human), UniProt P01116, C118S/C51S/C80L/G12C). In words: Inhibition of KRAS G12C and cRAF binding (AlphaScreen). The settings on record: GMPPNP-loaded KRAS G12C, 19-20 hours incubation with compound; read-out: IC50 (Inhibition of KRAS G12C and cRAF Binding). The essentials: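 Compounds (DMSO) preincubated 19-20 h at room temperature, then RBD with streptavidin donor and glutathione acceptor beads added in 25 mM Hepes pH 7.4, 150 mM NaCl, 5 mM MgCl2, 0.01% Triton X-100, 2% DMSO for 60-90 min. Emission 570 nm (excitation 680 nm); IC50 by 4-parameter fit. Counter-screen used biotin-AviTag-GST instead of RBD.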
Chain of KRAS G12C and cRAF (Ras-binding domain) interaction (P01116 other isoform, or with tags, fused parts or gaps G12C/C51S/C80L/C118S): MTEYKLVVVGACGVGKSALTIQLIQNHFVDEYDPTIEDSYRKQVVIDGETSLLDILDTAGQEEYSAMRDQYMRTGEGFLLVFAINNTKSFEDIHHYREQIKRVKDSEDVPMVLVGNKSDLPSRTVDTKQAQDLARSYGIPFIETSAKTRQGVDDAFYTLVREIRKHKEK
For orientation: Alpha assays give light when donor and acceptor beads are brought close together.
As for `CN(c1nc(OCC23CCCN2CCC3)nc2c(F)c(-c3cccc4cccc(Cl)c34)ncc12)[C@@H]1CCN(C(=O)/C=C/c2nc(C(F)(F)F)no2)C1` [Example 100, (R,E)-1-(3-((7-(8-chloronaphthalen-1-yl)-8-fluoro-2-((tetrahydro-1H-pyrrolizin-7a(5H)-yl)methoxy)pyrido[4,3-d]pyrimidin-4-yl)(methyl)amino)pyrrolidin-1-yl)-3-(3-(trifluoromethyl)-1,2,4-oxadiazol-5-yl)prop-2-en-1-one], the IC50 is below 10 nM.
Under `CN(c1nc(OCC23CCCN2CCC3)nc2c(F)c(-c3cccc4cccc(Cl)c34)ncc12)[C@@H]1CCN(C(=O)/C=C/c2nc(C3(C)CC3)no2)C1` [Example 101, (R,E)-1-(3-((7-(8-chloronaphthalen-1-yl)-8-fluoro-2-((hexahydro-1H-pyrrolizin-7a-yl)methoxy)pyrido[4,3-d]pyrimidin-4-yl)(methyl)amino)pyrrolidin-1-yl)-3-(3-(1-methylcyclopropyl)-1,2,4-oxadiazol-5-yl)prop-2-en-1-one] stands below 10 nM; under `CN(c1nc(OC[C@@]23CCCN2C[C@H](F)C3)nc2c(F)c(-c3cccc4ccc(F)c(Cl)c34)ncc12)[C@@H]1CCN(C(=O)/C=C/C2CCCN2)C1` (stereo partly drawn) [Example 102, (E)-1-((R)-3-((7-(8-chloro-7-fluoronaphthalen-1-yl)-8-fluoro-2-(((2R,7aS)-2-fluorotetrahydro-1H-pyrrolizin-7a(5H)-yl)methoxy)pyrido[4,3-d]pyrimidin-4-yl)(methyl)amino)pyrrolidin-1-yl)-3-(pyrrolidin-2-yl)prop-2-en-1-one], 10 to 100 nM; under `CN(c1nc(OC[C@@]23CCCN2C[C@H](F)C3)nc2c(F)c(-c3cccc4ccc(F)c(Cl)c34)ncc12)[C@@H]1CCN(C(=O)/C=C/C2CCN2)C1` (stereo partly drawn) [Example 103, (E)-3-(azetidin-2-yl)-1-((R)-3-((7-(8-chloro-7-fluoronaphthalen-1-yl)-8-fluoro-2-(((2R,7aS)-2-fluorotetrahydro-1H-pyrrolizin-7a(5H)-yl)methoxy)pyrido[4,3-d]pyrimidin-4-yl)(methyl)amino)pyrrolidin-1-yl)prop-2-en-1-one], 10 to 100 nM.
Take `CN(CC1CN(C(=O)/C=C/c2nc(C3CC3)no2)C1)c1nc(OC[C@@]23CCCN2C[C@H](F)C3)nc2c(F)c(-c3cccc4cccc(Cl)c34)ncc12` [Example 104, (E)-1-(3-(((7-(8-chloronaphthalen-1-yl)-8-fluoro-2-(((2R,7aS)-2-fluorotetrahydro-1H-pyrrolizin-7a(5H)-yl)methoxy)pyrido[4,3-d]pyrimidin-4-yl)(methyl)amino)methyl)azetidin-1-yl)-3-(3-cyclopropyl-1,2,4-oxadiazol-5-yl)prop-2-en-1-one]: the IC50 was in the range of 100 to 500 nM.
Under `CN(CC1CN(C(=O)/C=C/c2nc(C(C)(C)O)no2)C1)c1nc(OC[C@@]23CCCN2C[C@H](F)C3)nc2c(F)c(-c3cccc4cccc(Cl)c34)ncc12` [Example 105, (E)-1-(3-(((7-(8-chloronaphthalen-1-yl)-8-fluoro-2-(((2R,7aS)-2-fluorotetrahydro-1H-pyrrolizin-7a(5H)-yl)methoxy)pyrido[4,3-d]pyrimidin-4-yl)(methyl)amino)methyl)azetidin-1-yl)-3-(3-(2-hydroxypropan-2-yl)-1,2,4-oxadiazol-5-yl)prop-2-en-1-one] stands below 10 nM.
With `CC(C)c1noc(/C=C/C(=O)N2CC(CN(C)c3nc(OC[C@@]45CCCN4C[C@H](F)C5)nc4c(F)c(-c5cccc6cccc(Cl)c56)ncc34)C2)n1` [Example 106, (E)-1-(3-(((7-(8-chloronaphthalen-1-yl)-8-fluoro-2-(((2R,7aS)-2-fluorotetrahydro-1H-pyrrolizin-7a(5H)-yl)methoxy)pyrido[4,3-d]pyrimidin-4-yl)(methyl)amino)methyl)azetidin-1-yl)-3-(3-isopropyl-1,2,4-oxadiazol-5-yl)prop-2-en-1-one], the IC50 fell in the range of 10 to 100 nM.
Next, `CN(c1nc(OC[C@@]23CCCN2C[C@H](F)C3)nc2c(F)c(-c3cccc4cccc(Cl)c34)ncc12)[C@@H]1CCN(C(=O)/C=C/c2nc(C(C)(C)O)no2)C1` [Example 107, (E)-1-((R)-3-((7-(8-chloronaphthalen-1-yl)-8-fluoro-2-(((2R,7aS)-2-fluorotetrahydro-1H-pyrrolizin-7a(5H)-yl)methoxy)pyrido[4,3-d]pyrimidin-4-yl)(methyl)amino)pyrrolidin-1-yl)-3-(3-(2-hydroxypropan-2-yl)-1,2,4-oxadiazol-5-yl)prop-2-en-1-one]: below 10 nM.
As to `CN(c1nc(OC[C@@]23CCCN2C[C@H](F)C3)nc2c1CCN(c1cccc3cccc(Cl)c13)C2)[C@@H]1CCN(C(=O)/C=C/c2cn(C)cn2)C1` [Example 110, (E)-1-((R)-3-((7-(8-chloronaphthalen-1-yl)-2-(((2R,7aS)-2-fluorohexahydro-1H-pyrrolizin-7a-yl)methoxy)-5,6,7,8-tetrahydropyrido[3,4-d]pyrimidin-4-yl)(methyl)amino)pyrrolidin-1-yl)-3-(1-methyl-1H-imidazol-4-yl)prop-2-en-1-one], the IC50 was above 500 nM.
Regarding `CN(c1nc(OC[C@@]23CCCN2C[C@H](F)C3)nc2c(F)c(-c3cccc4cccc(Cl)c34)ncc12)[C@@H]1CCN(C(=O)/C=C/c2nc(C3CCC3)no2)C1` [Example 111, (E)-1-((R)-3-((7-(8-chloronaphthalen-1-yl)-8-fluoro-2-(((2R,7aS)-2-fluorohexahydro-1H-pyrrolizin-7a-yl)methoxy)pyrido[4,3-d]pyrimidin-4-yl)(methyl)amino)pyrrolidin-1-yl)-3-(3-cyclobutyl-1,2,4-oxadiazol-5-yl)prop-2-en-1-one], the IC50 fell in the range of 10 to 100 nM.
In the case of `CN(c1nc(OC[C@@]23CCCN2C[C@H](F)C3)nc2c1CCN(c1cccc3cccc(Cl)c13)C2)[C@@H]1CCN(C(=O)/C=C/c2nc(C3(C)CC3)no2)C1` [Example 114, (E)-1-((R)-3-((7-(8-chloronaphthalen-1-yl)-2-(((2R,7aS)-2-fluorohexahydro-1H-pyrrolizin-7a-yl)methoxy)-5,6,7,8-tetrahydropyrido[3,4-d]pyrimidin-4-yl)(methyl)amino)pyrrolidin-1-yl)-3-(3-(1-methylcyclopropyl)-1,2,4-oxadiazol-5-yl)prop-2-en-1-one], the IC50 is 10 to 100 nM.
Next, `CN(c1nc(OCC23CCCN2CCC3)nc2c(F)c(-c3cccc4cccc(Cl)c34)ncc12)[C@@H]1CCN(C(=O)/C=C/c2cn(C)cn2)C1` [Example 115, (R,E)-1-(3-((7-(8-chloronaphthalen-1-yl)-8-fluoro-2-((hexahydro-1H-pyrrolizin-7a-yl)methoxy)pyrido[4,3-d]pyrimidin-4-yl)(methyl)amino)pyrrolidin-1-yl)-3-(1-methyl-1H-imidazol-4-yl)prop-2-en-1-one]: above 500 nM.
Under `C=CC(=O)N1C[C@H](N(C)c2nc(OCC34CCCN3CCC4)nc3c(F)c(-c4cccc5cccc(Cl)c45)ncc23)CC1C#N` (stereo partly drawn) [Example 118, (4R)-1-acryloyl-4-((7-(8-chloronaphthalen-1-yl)-8-fluoro-2-((hexahydro-1H-pyrrolizin-7a-yl)methoxy)pyrido[4,3-d]pyrimidin-4-yl)(methyl)amino)pyrrolidine-2-carbonitrile] stands 10 to 100 nM; under `C=CC(=O)N1C[C@H](N(C)c2nc(OCC34CCCN3CCC4)nc3c(F)c(-c4cccc5cccc(Cl)c45)ncc23)C[C@H]1CC#N` [Example 119, 2-((2S,4R)-1-acryloyl-4-((7-(8-chloronaphthalen-1-yl)-8-fluoro-2-((tetrahydro-1H-pyrrolizin-7a(5H)-yl)methoxy)pyrido[4,3-d]pyrimidin-4-yl)(methyl)amino)pyrrolidin-2-yl)acetonitrile], 100 to 500 nM.
With `CN(c1nc(OC[C@@]23CCCN2C[C@H](F)C3)nc2c1CCN(c1cccc3cccc(Cl)c13)C2)[C@@H]1CCN(C(=O)/C=C/c2nc(C3CC3)no2)C1` [Example 120, (E)-1-((R)-3-((7-(8-chloronaphthalen-1-yl)-2-(((2R,7aS)-2-fluorohexahydro-1H-pyrrolizin-7a-yl)methoxy)-5,6,7,8-tetrahydropyrido[3,4-d]pyrimidin-4-yl)(methyl)amino)pyrrolidin-1-yl)-3-(3-cyclopropyl-1,2,4-oxadiazol-5-yl)prop-2-en-1-one], the IC50 fell in the range of 10 to 100 nM.
Next, `CN(c1nc(OC[C@@]23CCCN2C[C@H](F)C3)nc2c(F)c(-c3cccc4ccc(F)c(Cl)c34)ncc12)[C@@H]1CCN(C(=O)/C=C/C2CNCCO2)C1` (stereo partly drawn) [Example 122]: 100 to 500 nM; `CN(c1nc(OC[C@@]23CCCN2C[C@H](F)C3)nc2c(F)c(-c3cccc4ccc(F)c(Cl)c34)ncc12)[C@@H]1CCN(C(=O)/C=C/C2COCCN2)C1` (stereo partly drawn) [Example 123, (E)-1-((R)-3-((7-(8-chloro-7-fluoronaphthalen-1-yl)-8-fluoro-2-(((2R,7aS)-2-fluorotetrahydro-1H-pyrrolizin-7a(5H)-yl)methoxy)pyrido[4,3-d]pyrimidin-4-yl)(methyl)amino)pyrrolidin-1-yl)-3-(morpholin-3-yl)prop-2-en-1-one]: 100 to 500 nM; `CN1CCCC1/C=C/C(=O)N1CC[C@@H](N(C)c2nc(OC[C@@]34CCCN3C[C@H](F)C4)nc3c(F)c(-c4cccc5ccc(F)c(Cl)c45)ncc23)C1` (stereo partly drawn) [Example 124, (E)-1-((R)-3-((7-(8-chloro-7-fluoronaphthalen-1-yl)-8-fluoro-2-(((2R,7aS)-2-fluorotetrahydro-1H-pyrrolizin-7a(5H)-yl)methoxy)pyrido[4,3-d]pyrimidin-4-yl)(methyl)amino)pyrrolidin-1-yl)-3-(1-methylpyrrolidin-2-yl)prop-2-en-1-one]: 10 to 100 nM.
